Columns and labels:
[1] = test system: Pgp+ (DiOC2(3)-dye effluxing) T cells; assay: DiOC2(3) dye efflux flow cytometry of inhibitor-treated T cells; format: cell-based, human; details: treatment for 13 days, IL2 + CD3 and CD28 antibodies
How it was run: (§1)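 Donor PBMC-derived T cells, stimulated with IL2 (50 IU/ml) and/or CD3/CD28 antibodies (30 ng/ml), were exposed to inhibitors from day 1 for about 13 days with periodic drug re-addition. Cells were loaded with DiOC2(3) (60 ng/ml, 4° C, 40 min), effluxed at 37° C for 90 min, and optionally stained with CD62L-APC. Flow cytometry scored DiOC2(3)-dull (Pgp+) and CD62L+ populations.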

[2] = test system: Pgp+ (DiOC2(3)-dye effluxing cells) and CD62L+ T cells; assay: DiOC2(3) dye efflux plus CD62L-APC staining, flow cytometry of inhibitor-treated T cells; format: cell-based, human; details: treatment for 13 days, IL2 + CD3 and CD28 antibodies
How it was run: as §1

[3] = test system: CD8+CD45RA+CCR7+CD62L+ T cells; assay: Flow cytometry for CD8, CD45RA, CCR7 and CD62L on inhibitor-treated T cells; format: cell-based, human; details: cells cultured for 14 days
How it was run: (§2)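 Donor T cells were isolated from PBMC with CD3 microbeads and activated overnight in XVIVO 15 with IL2 50 IU/ml plus 30 ng/ml anti-CD3/CD28. They were treated with drugs from day 1, with medium and drug refreshed on days 7 and 13. After 13–14 days, cells were stained for CD8, CD45RA, CCR7 and CD62L (4 °C, 1 h) and analysed by flow cytometry.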

[4] = test system: CD45RA+CCR7+CD62L+ T cells; assay: Flow cytometry for CD45RA, CCR7 and CD62L on inhibitor-treated T cells (all T cells); format: cell-based, human; details: cells cultured for 14 days
How it was run: as §2

[5] = test system: Nalm6-GLuc cells; assay: Blinatumomab induced cell death by inhibitor-treated T cells, Matador cytotoxicity assay; format: cell-based; details: Blinatumomab 100 ng/million T cells, overnight
Description: After 20 days of treatment with the inhibitors, cells from the preceding experiment were tested for their ability to induce Blinatumomab induced cell death using the Matador cytotoxicity assay. For this purpose, untreated and inhibitors-treated T cells were plated in a 24 well plate at 2×10^5 cells/well either alone or in the presence of 2×10^5 Nalm6-GLuc cells in XVIVO medium without any additional growth factors. Blinatumomab (Blincyto) was added at final concentration of 100 ng/million T cells. Cells were cultured overnight and next day supernatant was collected and assayed using the Matador assay. For the Matador Assay, 15 μl of supernatant was added to 15 μl of XVIVO medium in each well of a 384-well plate and hGLuc assay was done by adding 15 μl of 1:100 CTZ per well in well mode.

[6] = Leukapheresis with and without mobilization and manufacturing of CAR-T/TCR-T cells from cancer patients; format: in vivo, human
Description: A study is conducted to compare the generation of cell therapy products from cancer patients who have received 2 or more cycles of prior chemotherapy. Patients with different types of different cancers (e.g., diffuse large B cell lymphoma, acute B-ALL, CLL, multiple myeloma, breast cancer, ovarian cancer, lung cancer etc.) are eligible. Leukapheresis products are collected from the subjects with and without mobilization with Perixafor (0.24 mg/kg subcutaneously daily on days 1-3). T cells are isolated and used for manufacturing of CAR-T and TCR-T cells using lentiviral mediated gene transduction as described in the preceding sections.

[7] = test system: T cells; assay: In vitro expansion of CAR/TCR T cells with bispecific engagers and antigen presenting cells or substrate (CFSE staining); format: cell-based, human
Description: Buffy coat cells are obtained from healthy de-identified adult donors from the Blood Bank and used to isolate peripheral blood mononuclear cells (PBMC) by Ficoll-Hypaque gradient centrifugation. PBMC are either used as such or used to isolate T cells using CD3 magnetic microbeads (Miltenyi Biotech) and following the manufacturer's instructions. PBMC or isolated T cells are re-suspended in XVIVO medium (Lonza) supplanted with 10 ng/ml CD3 antibody, 10 ng/ml CD28 antibody and 100 IU recombinant human-IL2. In an alternate embodiment, PBCM or T cells are activated by resuspending them at concentration of 5×10^5 cells/ml in fresh XVIVO media containing Blinatumomab (10 ng/ml) plus irradiated (100 Gy) REC-1 cells (Mantle Cell lymphoma; ATCC Catalog #CRL-3004) at concentration of 5×10^6 cells/ml in the presence of 50 IU recombinant human-IL2. In another alternate embodiment, the cell culture medium further contains a purified CD19×CD28 bispecific antibody (SEQ ID NO: 2708, 2705 or 2706) and/or a CD19×41BB bispecific antibody (SEQ ID NO: 2761, 2762, 2758 or 2764) each at concentration of about 10 ng/ml. Cells are cultured at 37° C., in a 5% CO2 humidified incubator. Cells are activated in the above medium for 1 day prior to infection with lentiviral vectors encoding a CAR or a TCR (e.g., SEQ ID NO: 2822 to 2835) or a TCR (SEQ ID NO: 2836). In general, primary cells (e.g. T cells) are infected in the morning using spin-infection (1800 rpm for 90 minutes at 37° C. with 300 μl of concentrated virus that has been re-suspended in XVIVO medium in the presence of 8 μg/ml of Polybrene® (Sigma, Catalog no. H9268). After the infection, the cells are pelleted and resuspended at concentration of 5×10^5 cells/ml in fresh XVIVO media containing Blinatumomab (10 ng/ml) plus irradiated (100 Gy) REC-1 (Mantle Cell lymphoma; ATCC Catalog #CRL-3004) cells (5×10^6 cells/ml) and 50 IU recombinant human-IL2. Cells are cultured in the above medium for 10-15 days. Culture media is supplemented with fresh REC-1 cells, blinatumomab and IL2 every 2-4 days. […] The expanded CAR-T cells are subsequently used for in vitro cytotoxicity studies, in vivo efficacy studies in NSG mice and clinical trial of patients with cancers expressing the antigens targeted by the CAR/TCR using methods known in the art.
The above experiment is also repeated using CD19+ RAJI and NALM6 cells. […] Thus, mantle cell lymphoma cells and, in particular, REC-1 cells are the preferred antigen presenting cells for expansion of T cells (e.g., CAR-T cells, TCR-T cells and TILs) when used in conjuction with bispecific T cell engagers that has at least one binding domain that binds to an antigen expressed on REC-1 (e.g, CD19, CD20, CD22 and BCMA). […]

Question: Which “p2: pgp+ from Live cells” value ([1]; 500 nM) does the source give for `CCC(CC)n1ccc2c(C(=O)NCc3c(C)cc(C)[nH]c3=O)cc(C#N)cc21` [EI1] here?
Answer: 33.53

Question: What about the “p2: pgp+ from Live cells” value ([1]; 1 μM) of the same molecule?
Answer: 59.77

Question: And the “p5: double +ve pgp+ and CD62L-APC+ from Live cells” value ([2]; 500 nM)?
Answer: 10.2

Question: What about the “p5: double +ve pgp+ and CD62L-APC+ from Live cells” value ([2]; 1 μM) of the same molecule?
Answer: 19.21

Question: And the “GATE P4 CD8(PerCP)+, CD45RA(FITC)+, CCR7 (PE)+, CD62L(APC)” value ([3]; 500 nM)?
Answer: 76.19%

Question: And the “GATE P4 CD8(PerCP)+, CD45RA(FITC)+, CCR7 (PE)+, CD62L(APC)” value ([3]; 1 μM)?
Answer: 78.47%

Question: What about the “GATE P6 CD45RA(FITC)+, CCR7 (PE)+, CD62L(APC)” value ([4]; 500 nM) of the same molecule?
Answer: 67.64%

Question: What about the “GATE P6 CD45RA(FITC)+, CCR7 (PE)+, CD62L(APC)” value ([4]; 1 μM) of the same molecule?
Answer: 66.83%

Question: And the “Blinatumomab induced cytotoxicity compared to untreated T cells” value ([5]; T cells after 20 days of treatment at 500 nM)?
Answer: significant increase in cytotoxicity

Question: What does the source list for `Cc1cc(=O)n(C)c2cc(N3C(=O)CC[C@H](NS(=O)(=O)CC(C)C)[C@H]3c3ccc(Cl)cc3)ccc12` [LP99]?
Answer: p2: pgp+ from Live cells ([1]; 500 nM): 19.46; p2: pgp+ from Live cells ([1]; 1 μM): 20.66; p5: double +ve pgp+ and CD62L-APC+ from Live cells ([2]; 500 nM): 3.52; p5: double +ve pgp+ and CD62L-APC+ from Live cells ([2]; 1 μM): 4.18; GATE P4 CD8(PerCP)+, CD45RA(FITC)+, CCR7 (PE)+, CD62L(APC) ([3]; 500 nM): 79.25%; GATE P4 CD8(PerCP)+, CD45RA(FITC)+, CCR7 (PE)+, CD62L(APC) ([3]; 1 μM): 79.77%; GATE P6 CD45RA(FITC)+, CCR7 (PE)+, CD62L(APC) ([4]; 500 nM): 69.67%; GATE P6 CD45RA(FITC)+, CCR7 (PE)+, CD62L(APC) ([4]; 1 μM): 67.58%; Blinatumomab induced cytotoxicity compared to untreated T cells ([5]; T cells after 20 days of treatment at 1 μM): significant increase in cytotoxicity

Question: What does the source list for `Cc1cc(C)c(CNC(=O)c2cc(-c3ccc(CN4CCOCC4)cc3)cc3c2cnn3C2CCCC2)c(=O)[nH]1` [EPZ005687]?
Answer: p2: pgp+ from Live cells ([1]; 10 nM): 23.99; p2: pgp+ from Live cells ([1]; 100 nM): 16.94; p5: double +ve pgp+ and CD62L-APC+ from Live cells ([2]; 10 nM): 5.21; p5: double +ve pgp+ and CD62L-APC+ from Live cells ([2]; 100 nM): 3.87; GATE P4 CD8(PerCP)+, CD45RA(FITC)+, CCR7 (PE)+, CD62L(APC) ([3]; 10 nM): 74.86%; GATE P4 CD8(PerCP)+, CD45RA(FITC)+, CCR7 (PE)+, CD62L(APC) ([3]; 100 nM): 79.65%; GATE P6 CD45RA(FITC)+, CCR7 (PE)+, CD62L(APC) ([4]; 10 nM): 64.01%; GATE P6 CD45RA(FITC)+, CCR7 (PE)+, CD62L(APC) ([4]; 100 nM): 69.92%; Blinatumomab induced cytotoxicity compared to untreated T cells ([5]; T cells after 20 days of treatment at 100 nM): significant increase in cytotoxicity

Question: Which “yield of T cells in the initial leukapheresis product” value ([6]; cancer patients with 2 or more cycles of prior chemotherapy, with versus without mobilization) does the source give for `c1cc(CN2CCCNCCNCCCNCC2)ccc1CN1CCCNCCNCCCNCC1` [Perixafor, 1,1′-[1,4-phenylenebis(methylene)]bis [1,4,8,11-tetraazacyclotetradecane]] here?
Answer: improves the yield

Question: And the “effect on gene transduction, CAR/TCR expression, in vitro and in vivo expansion, cytotoxicity, cytokine production and anti-tumor efficacy of CAR-T/TCR-T products” value ([6]; with versus without mobilization)?
Answer: no major adverse effect

Question: Which “expansion of CAR-T cells” value ([7]; 10 ng/ml with CD19-ECD beads, CD28 antibody 10 ng/ml and IL2 50 IU, 10-25 days) does the source give for “Blinatumomab: a CD19×CD3 bispecific antibody” here?
Answer: Robust expansion

Question: What about the “expansion of cells, CFSE staining” value ([7]; 10 ng/ml with irradiated REC-1 cells and 50 IU IL2, 10-15 days) of the same molecule?
Answer: Robust expansion

Question: And the “degree of expansion of CAR or TCR expressing T cells” value ([7]; co-culture with CD19+ RAJI and NALM6 cells instead of REC-1 cells)?
Answer: less than that observed with REC-1 cells

Question: And the “expansion of CAR-expressing PBMC and/or T cells” value ([7]; combination of Blinatumomab, CD19×CD28 bispecific antibody, REC-1 cells and IL2)?
Answer: Robust expansion

Question: Which “yield of leukapheresis product for generation of CAR-T cells” value ([6]; mobilization prior to leukapheresis) does the source give for “GM-CSF: cytokine used as mobilization agent” here?
Answer: improve the yield

Reference: US20210290676A1, “IMPROVING THE EFFICACY AND SAFETY OF ADOPTIVE CELLULAR THERAPIES” (University of Southern California, priority 2018, published 2021)
